From PubChem BioAssay AID256 (DTP/NCI, 2004)
Values joined by “and” are separate entries in the source; they are usually repeats but may differ in a detail not shown here. Equal entries are not always repeated. Inconclusive results and toxic doses are left out. The calls were made as follows: active = survival T/C of 150% or more; inactive = T/C below 125% in these data.

System: CD2F1 mice, L1210 leukemia ip, survival T/C
Experiment: NCI In Vivo Anticancer Drug Screen. Data for tumor model L1210 Leukemia (intraperitoneal) in CD2F1 (CDF1) mice
Conditions: endpoint: mean survival time, higher = longer survival
Method in brief: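 Ratio T/C, where T is the treated-group value and C the vehicle-dosed control value, from mice implanted with a transplantable tumor.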

[1] = dose: 50.0 mg/kg/injection, schedule: Q01DX009 (ip), vehicle: saline with Tween-80
[2] = dose: 100.0 mg/kg/injection, schedule: Q01DX009 (ip), vehicle: saline with Tween-80
[3] = dose: 100.0 mg/kg/injection, schedule: Q04DX003 (ip), vehicle: saline with Tween-80
[4] = dose: 200.0 mg/kg/injection, schedule: Q01DX009 (ip), vehicle: saline with Tween-80
[5] = dose: 200.0 mg/kg/injection, schedule: Q04DX003 (ip), vehicle: saline with Tween-80
[6] = dose: 400.0 mg/kg/injection, schedule: Q04DX003 (ip), vehicle: saline with Tween-80

Measured: T/C

C[N+](C)(CCO)Cc1ccccc1
inactive: dose: 25.0 mg/kg/injection, schedule: Q01DX009 (ip), vehicle: saline with Tween-80 102 % of control | dose: 25.0 mg/kg/injection, schedule: Q04DX003 (ip), vehicle: saline with Tween-80 97 % of control | [1] 105 % of control | dose: 50.0 mg/kg/injection, schedule: Q04DX003 (ip), vehicle: saline with Tween-80 100 % of control | [2] 105 % of control | [3] 96 % of control and 101 % of control

CS(=O)(=O)OCCN(CCOS(C)(=O)=O)c1ccc(C=Nc2ccc(-c3csc(COc4ccccc4)n3)cc2)cc1
inactive: dose: 12.5 mg/kg/injection, schedule: Q01DX009 (ip), vehicle: Klucel (hydroxypropylcellulose) (HPC) 119 % of control | dose: 25.0 mg/kg/injection, schedule: Q01DX009 (ip), vehicle: Klucel (hydroxypropylcellulose) (HPC) 110 % of control | dose: 50.0 mg/kg/injection, schedule: Q01DX009 (ip), vehicle: Klucel (hydroxypropylcellulose) (HPC) 112 % of control | dose: 100.0 mg/kg/injection, schedule: Q01DX009 (ip), vehicle: Klucel (hydroxypropylcellulose) (HPC) 115 % of control | dose: 200.0 mg/kg/injection, schedule: Q01DX009 (ip), vehicle: Klucel (hydroxypropylcellulose) (HPC) 120 % of control | dose: 400.0 mg/kg/injection, schedule: Q01DX009 (ip), vehicle: Klucel (hydroxypropylcellulose) (HPC) 106 % of control and 107 % of control
active: dose: 400.0 mg/kg/injection, schedule: Q01DX008 (ip), vehicle: Klucel (hydroxypropylcellulose) (HPC) 150 % of control

CCCCCOC(=S)S
inactive: dose: 9.37 mg/kg/injection, schedule: Q04DX003 (ip), vehicle: Klucel (hydroxypropylcellulose) (HPC) 86 % of control | dose: 37.5 mg/kg/injection, schedule: Q04DX003 (ip), vehicle: Klucel (hydroxypropylcellulose) (HPC) 86 % of control

O=C(CC(O)(C(F)(F)F)C(F)(F)F)c1ccccc1Cl
inactive: [2] 100 % of control | [4] 115 % of control | dose: 400.0 mg/kg/injection, schedule: Q01DX009 (ip), vehicle: saline with Tween-80 107 % of control

CC1CC(=O)C2=C(C1)NC(=O)CC2 (stereo unspecified)
inactive: [3] 90 % of control | [5] 96 % of control | [6] 101 % of control

CCOC(=O)C(CCC(O)C#N)(CC(C)=O)C(=O)OCC (stereo unspecified)
inactive: dose: 75.0 mg/kg/injection, schedule: Q01DX001 (ip), vehicle: saline 100 % of control

CCCCCCCCCCCCCCCCN(C)S(=O)(=O)c1cccc(S(=O)(=O)F)c1
inactive: [3] 95 % of control | [5] 101 % of control | [6] 102 % of control

CC1=NCCc2ccccc21
inactive: dose: 12.5 mg/kg/injection, schedule: Q04DX003 (ip), vehicle: saline 102 % of control | dose: 25.0 mg/kg/injection, schedule: Q04DX003 (ip), vehicle: saline 93 % of control

O=C1C(Br)C2CCC1C2C(=O)O (stereo unspecified)
inactive: [3] 101 % of control | [5] 98 % of control | [6] 98 % of control

CCCCCCCCCCCCCCCCCc1nnc(-c2ccccc2O)o1
inactive: dose: 25.0 mg/kg/injection, schedule: Q04DX002 (ip), vehicle: saline with Tween-80 100 % of control | dose: 50.0 mg/kg/injection, schedule: Q04DX002 (ip), vehicle: saline with Tween-80 103 % of control | dose: 100.0 mg/kg/injection, schedule: Q04DX002 (ip), vehicle: saline with Tween-80 108 % of control | dose: 200.0 mg/kg/injection, schedule: Q04DX002 (ip), vehicle: saline with Tween-80 112 % of control

CC[C@@]1(O)C(=O)OCc2c1cc1n(c2=O)Cc2cc3ccccc3nc2-1
active: dose: 1.56 mg/kg/injection, schedule: Q04DX003 (ip), vehicle: water 156 % of control | dose: 3.13 mg/kg/injection, schedule: Q04DX003 (ip), vehicle: other 159 % of control | dose: 3.13 mg/kg/injection, schedule: Q04DX003 (ip), vehicle: water 156 % of control
inactive: dose: 0.78 mg/kg/injection, schedule: Q04DX003 (ip), vehicle: water 120 % of control | dose: 6.25 mg/kg/injection, schedule: Q04DX003 (ip), vehicle: other 124 % of control | dose: 12.5 mg/kg/injection, schedule: Q04DX003 (ip), vehicle: water 95 % of control | dose: 25.0 mg/kg/injection, schedule: Q04DX003 (ip), vehicle: other 119 % of control

CN(C)C(=O)N1CC1
inactive: [3] 98 % of control | [5] 98 % of control | [6] 106 % of control

C=C(COC(C)(C)C)CN(C)C
inactive: [1] 98 % of control | [2] 104 % of control

O=C(Nc1ccccc1)OC1CCCCC1
inactive: [3] 101 % of control | [5] 100 % of control | [6] 97 % of control

CC(=O)c1ccccc1[N+](=O)[O-]
inactive: [2] 94 % of control | [4] 95 % of control
